Measurements: patent US20220323594A1, “LIPIDATED CATIONIC PEPTIDE-PEG COMPOSITIONS FOR NUCLEIC ACID DELIVERY” (NUTCRACKER THERAPEUTICS, INC., priority 2019, published 2022)

Experiments:
[1] = Dynamic light scattering (DLS) of mRNA/peptoid formulations: particle size and polydispersity; format: physicochemical; settings: Fluc mRNA/peptoid formulation; for Size PDI: size polydispersity index by DLS, 5:1 mass ratio; for Size (nm): volume average particle size/diameter by DLS, 5:1 mass ratio peptoid:cargo
Outline: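 Fluc mRNA was complexed with amino lipidated peptoids by pipetting at a 5:1 peptoid:cargo mass ratio, peptoid in ethanol and mRNA in PBS pH 5.5 (1:3 volume ratio). DLS gave volume-average diameter (nm) and polydispersity index.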

[2] = mRNA encapsulation by fluorescence of Qubit RNA HS dye before and after lysis with Triton X-100; format: physicochemical; settings: percentage of mRNA encapsulation; Fluc mRNA/peptoid formulation, 5:1 mass ratio
Outline: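 Peptoid/Fluc mRNA nanoparticles were formed by pipette mixing at a 5:1 peptoid:mRNA mass ratio. Percent encapsulation came from Qubit RNA HS dye fluorescence before versus after particle lysis with Triton X-100.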

HeLa cells [3] = assay: In vitro expression of firefly luciferase (Fluc) after treatment with Fluc mRNA/amino lipidated peptoid formulations, no PEG or 2% DMG-PEG2000; format: cell-based
Outline: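 Peptoid/Fluc mRNA particles (5:1 w/w), without PEG or with DMG-PEG2000 pre-mixed into peptoid at 2% w/w, dosed at 100 ng mRNA/well on HeLa cells. Luciferase luminescence (RLU) read after 6 h and 24 h.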

HeLa cells [4] = assay: In vitro Fluc expression with variable peptoid:mRNA mass ratio, 2% DMG-PEG2000; format: cell-based; settings: 24 h; for Observed Luciferase Expression (RLU) for Given Formulation Mass Ratio 2:1: 2% (w/w) DMG-PEG2000, peptoid:mRNA 2:1; for Observed Luciferase Expression (RLU) for Given Formulation Mass Ratio 3.5:1: 2% (w/w) DMG-PEG2000, peptoid:mRNA 3.5:1; for Observed Luciferase Expression (RLU) for Given Formulation Mass Ratio 5:1: 2% (w/w) DMG-PEG2000, peptoid:mRNA 5:1; for Observed Luciferase Expression (RLU) for Given Formulation Mass Ratio 7.5:1: 2% (w/w) DMG-PEG2000, peptoid:mRNA 7.5:1
Outline: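 Fluc mRNA particles formulated at 2:1, 3.5:1, 5:1 and 7.5:1 peptoid:mRNA (w/w), with DMG-PEG2000 at 2% (w/w) relative to amino lipidated peptoid. HeLa cells treated for 24 hours; Fluc expression read as bioluminescence (RLU).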

[5] = MTT viability assay after treatment with Fluc mRNA/amino lipidated peptoid formulations; format: cell-based; settings: human, HeLa cells
Outline: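 Formulations (peptoid:mRNA 5:1 mass ratio, 2% w/w DMG-PEG2000) were applied at 100 ng Fluc mRNA per well for 8 h, followed by 48 h of growth. Cells then received 1.5 mg/mL MTT for 2 h, and formazan signal was normalized to untreated cells.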

Balb/c mice [6] = assay: In vivo whole-body expression of Fluc following IV administration; settings: Balb/c mice (n=3), IV tail-vein, 0.5 mg/kg, 5:1 peptoid:mRNA, 2% w/w DMG-PEG2000, 8 hours
Description: (§1) Amino lipidated peptoid delivery vehicles are effective for in vivo administration of Fluc mRNA to Balb/c mice (n=3) through multiple routes of administration. Briefly, representative amino lipidated peptoid/Fluc formulations (prepared at a 5:1 mass ratio of amino lipidated peptoid:mRNA unless noted, with 2% w/w DMG-PEG2000) were administered at a dose of 0.5 mg/kg via a tail-vein injection, and the resulting bioluminescence was quantified after 8 hours.

Balb/c mice [7] = assay: In vivo organ-specific bioluminescence (biodistribution of Fluc) following IV administration; settings: for Total Flux (p/s) Liver: dissected liver; for Total Flux (p/s) Lung: dissected lung; for Total Flux (p/s) Spleen: dissected spleen
Description: as §1, with “hours. […] Organ-specific bioluminescence was quantified by sacrificing the treated animal, dissecting out the organs of interest, and separately quantifying the resulting bioluminescence. […] FIG. 7C depicts a bar chart quantifying the organ-specific biodistribution of the formulations as a function of total photon flux.” for “hours.”

Balb/c mice [8] = assay: In vivo expression of Fluc following subcutaneous or intramuscular administration; settings: for Total Flux (photons/sec) I.M. (0.05 mpk): mRNA 0.05 mpk; for Total Flux (photons/sec) S.C. (0.1 mpk): subcutaneous, mRNA 0.1 mpk
Description: In addition to IV administration, amino lipidated peptoids are also effective for local administration of mRNA through subcutaneous (S.C.) or intramuscular (I.M.) routes of administration. […] For these examples, mRNA was administered at a dose of 0.1 milligrams/kilogram (mpk) for subcutaneous or 0.05 mpk for intramuscular. In these cases, the overall expression was higher following intramuscular injections. […] Additional experiments were carried out to assess any variability in biodistribution as a function of the loading mass ratio of amino lipidated peptoid to the Fluc mRNA. FIG. 8A depicts a plot of total photon flux for formulations of amino lipidated peptoid compound 28 with 2% DMG-PEG 2000 and Fluc mRNA at different peptoid:mRNA ratios (1:1, 2:1, 5:1, 7.5:1 and 10:1).

[9] = no PEG, peptoid:Fluc mRNA 5:1 w/w, 100 ng/well, 6 h of treatment
[10] = no PEG, peptoid:Fluc mRNA 5:1 w/w, 100 ng/well, 24 h of treatment
[11] = with 2% (w/w) DMG-PEG2000, peptoid:mRNA 5:1, 6 h after treatment
[12] = with 2% (w/w) DMG-PEG2000, peptoid:mRNA 5:1, 24 h after treatment

Structure (SMILES)	Size PDI [1]	Size (nm) [1] [nm]	% Encapsulation [2] [%]	Luciferase Expression (RLU) 6 h (HeLa cells [3]; [9]) [RLU]	Luciferase Expression (RLU) 24 h (HeLa cells [3]; [10]) [RLU]	Luciferase Expression (RLU) 6 h (HeLa cells [3]; [11]) [RLU]	Luciferase Expression (RLU) 24 h (HeLa cells [3]; [12]) [RLU]	Observed Luciferase Expression (RLU) for Given Formulation Mass Ratio 2:1 (HeLa cells [4]) [RLU]	Observed Luciferase Expression (RLU) for Given Formulation Mass Ratio 3.5:1 (HeLa cells [4]) [RLU]	Observed Luciferase Expression (RLU) for Given Formulation Mass Ratio 5:1 (HeLa cells [4]) [RLU]	Observed Luciferase Expression (RLU) for Given Formulation Mass Ratio 7.5:1 (HeLa cells [4]) [RLU]	viability at 8 h, 500 ng/well ([5]; Relative Viability (%) 2% PEG) [%]	viability at 8 h, 500 ng/well ([5]; Relative Viability (%) No PEG) [%]	Total Flux (photons/sec), whole body (Balb/c mice [6]) [photons/sec]	Total Flux (p/s) Liver (Balb/c mice [7]) [p/s]	Total Flux (p/s) Lung (Balb/c mice [7]) [p/s]	Total Flux (p/s) Spleen (Balb/c mice [7]) [p/s]	Total Flux (photons/sec) I.M. (0.05 mpk) (Balb/c mice [8]; intramuscular) [photons/sec]	Total Flux (photons/sec) S.C. (0.1 mpk) (Balb/c mice [8]) [photons/sec]	further results
CCCCCCCCCCN(CC(N)=O)C(=O)CN(CCCCCCCCCC)C(=O)CN(CCc1ccccc1)C(=O)CN(CCc1ccccc1)C(=O)CN(CCN)C(=O)CN(CCc1ccccc1)C(=O)CN(CCc1ccccc1)C(=O)CN(CCN)C(=O)CN(CCc1ccccc1)C(=O)CN(CCc1ccccc1)C(=O)CNCCN [Compound 2]	0.128	150	100.3	2.35E+02	1.35E+02	5.40E+01	1.17E+02	2.45E+04	1.80E+04	2.81E+04	1.49E+03	92.6	90.6	1.37E+07	1.40E+06	2.46E+07	3.39E+06	1.27E+05	8.31E+04	
CCCCCCCCCCN(CC(N)=O)C(=O)CN(CCCCCCCCCC)C(=O)CN(CCc1ccccc1)C(=O)CN(CCc1ccccc1)C(=O)CN(CCN)C(=O)CN(CCc1ccccc1)C(=O)CN(CCc1ccccc1)C(=O)CNCCN [Compound 10]	0.009	157	92.6	1.88E+03	7.01E+02	2.21E+02	2.43E+02	5.57E+03	1.23E+04	3.51E+04	3.57E+02	108	101	1.04E+07	5.85E+05	5.14E+06	2.17E+06	9.01E+05	1.40E+05	
CCCCCCCCCCN(CC(N)=O)C(=O)CN(CCCCCCCCCC)C(=O)CN(CCCCCCCCCC)C(=O)CN(CCCCCCCCCC)C(=O)CN(CCc1ccccc1)C(=O)CN(CCc1ccccc1)C(=O)CN(CCCN)C(=O)CN(CCc1ccccc1)C(=O)CN(CCc1ccccc1)C(=O)CN(CCCN)C(=O)CN(CCc1ccccc1)C(=O)CN(CCc1ccccc1)C(=O)CNCCCN [Compound 28]	0.085	308	52.0	9.59E+02	4.97E+03	8.33E+02	6.94E+02	1.26E+02	1.93E+03	5.75E+03	2.07E+04	92.7	85.4	2.36E+08	1.10E+07	7.08E+07	2.16E+08	7.23E+06	1.65E+06	organ localization of Fluc expression (Balb/c mice [7]; organ-specific bioluminescence): preferential localization in other organs such as the spleen; expression after IM administration compared with Compound 8 (Balb/c mice [8]; intramuscular): significantly outperformed that example

Now from value to compound, other results behind:

Size PDI [1]	Size (nm) [1] [nm]	% Encapsulation [2] [%]	Structure (SMILES)	Luciferase Expression (RLU) 6 h (HeLa cells [3]; [9]) [RLU]	Luciferase Expression (RLU) 24 h (HeLa cells [3]; [10]) [RLU]	Luciferase Expression (RLU) 6 h (HeLa cells [3]; [11]) [RLU]	Luciferase Expression (RLU) 24 h (HeLa cells [3]; [12]) [RLU]	Observed Luciferase Expression (RLU) for Given Formulation Mass Ratio 2:1 (HeLa cells [4]) [RLU]	Observed Luciferase Expression (RLU) for Given Formulation Mass Ratio 3.5:1 (HeLa cells [4]) [RLU]	Observed Luciferase Expression (RLU) for Given Formulation Mass Ratio 5:1 (HeLa cells [4]) [RLU]	Observed Luciferase Expression (RLU) for Given Formulation Mass Ratio 7.5:1 (HeLa cells [4]) [RLU]	viability at 8 h, 500 ng/well ([5]; Relative Viability (%) 2% PEG) [%]	viability at 8 h, 500 ng/well ([5]; Relative Viability (%) No PEG) [%]	Total Flux (photons/sec), whole body (Balb/c mice [6]) [photons/sec]	Total Flux (p/s) Liver (Balb/c mice [7]) [p/s]	Total Flux (p/s) Lung (Balb/c mice [7]) [p/s]	Total Flux (p/s) Spleen (Balb/c mice [7]) [p/s]	Total Flux (photons/sec) I.M. (0.05 mpk) (Balb/c mice [8]; intramuscular) [photons/sec]	Total Flux (photons/sec) S.C. (0.1 mpk) (Balb/c mice [8]) [photons/sec]	further results
0.233	554	77.3	CCCCCCCCCCN(CC(N)=O)C(=O)CN(CCCCCCCCCC)C(=O)CN(CCN)C(=O)CN(CCN)C(=O)CNCCN [Compound 14]	3.20E+01	1.43E+01	4.67E+00	9.00E+00	8.31E+01	1.42E+02	4.29E+01	2.82E+01	91		4.58E+05	4.47E+04	4.17E+04	4.89E+04			
0.127	374.4	71.5	CCCCCCCCCCN(CC(N)=O)C(=O)CN(CCCCCCCCCC)C(=O)CN(CCc1ccccc1)C(=O)CN(CCc1ccccc1)C(=O)CN(CC1CCCN1)C(=O)CN(CCc1ccccc1)C(=O)CN(CCc1ccccc1)C(=O)CN(CC1CCCN1)C(=O)CN(CCc1ccccc1)C(=O)CN(CCc1ccccc1)C(=O)CNCC1CCCN1 (stereo not shown) [Compound 36]	9.34E+03	7.78E+03	3.36E+02	7.45E+02	9.24E+02	4.18E+02	5.17E+02	6.71E+02	108	93.6							
